In ChEMBL document CHEMBL5236651, “Synthesis and antibacterial activity of novel 2‑fluoro ketolide antibiotics with 11,12‑quinoylalkyl side chains” (2023):
Values after ≈ are worked out from the molar mass of the structure shown.

How the values were obtained:
Format in all cases: functional
[1] = system: Enterococcus faecalis; assay: Antibacterial activity against vancomycin-sensitive Enterococcus faecalis […] assessed as inhibition of bacterial growth by CLSI based micro broth double dilution method
[2] = system: Streptococcus pyogenes; assay: Antibacterial activity against erythromycin-resistant Streptococcus pyogenes 12-1 assessed as inhibition of bacterial growth by CLSI based micro broth double dilution method
[3] = system: Escherichia coli; assay: Antibacterial activity against ESBL-positive Escherichia coli ATCC 35218 assessed as inhibition of bacterial growth by CLSI based micro broth double dilution method
[4] = system: Staphylococcus aureus; assay: Antibacterial activity against methicillin-sensitive Staphylococcus aureus 16-1 assessed as inhibition of bacterial growth by CLSI based micro broth double dilution method
[5] = system: Klebsiella pneumoniae; assay: Antibacterial activity against ESBL negative Klebsiella pneumoniae 7 assessed as inhibition of bacterial growth by CLSI based micro broth double dilution method
[6] = system: Streptococcus pyogenes; assay: Antibacterial activity against erythromycin-sensitive Streptococcus pyogenes ATCC 19615 assessed as inhibition of bacterial growth by CLSI based micro broth double dilution method
[7] = system: Pseudomonas aeruginosa; assay: Antibacterial activity against Pseudomonas aeruginosa 16-11 assessed as inhibition of bacterial growth by CLSI based micro broth double dilution method
[8] = system: Staphylococcus epidermidis; assay: Antibacterial activity against methicillin-sensitive Staphylococcus epidermidis ATCC 12228 assessed as inhibition of bacterial growth by CLSI based micro broth double dilution method
[9] = system: Staphylococcus aureus; assay: Antibacterial activity against methicillin-sensitive Staphylococcus aureus ATCC 29213 assessed as inhibition of bacterial growth by CLSI based micro broth double dilution method
[10] = system: Enterococcus faecalis; assay: Antibacterial activity against vancomycin-resistant Enterococcus faecalis ATCC 51299 assessed as inhibition of bacterial growth by CLSI based micro broth double dilution method
[11] = system: Klebsiella pneumoniae; assay: Antibacterial activity against ESBL negative Klebsiella pneumoniae 16-2 assessed as inhibition of bacterial growth by CLSI based micro broth double dilution method
[12] = system: Klebsiella pneumoniae; assay: Antibacterial activity against ESBL positive Klebsiella pneumoniae ATCC 700603 assessed as inhibition of bacterial growth by CLSI based micro broth double dilution method
[13] = system: Pseudomonas aeruginosa; assay: Antibacterial activity against Pseudomonas aeruginosa ATCC 27853 assessed as inhibition of bacterial growth by CLSI based micro broth double dilution method
[14] = system: Enterococcus faecalis; assay: Antibacterial activity against vancomycin-sensitive Enterococcus faecalis 16-6 assessed as inhibition of bacterial growth by CLSI based micro broth double dilution method
[15] = system: Streptococcus pneumoniae; assay: Antibacterial activity against erythromycin-sensitive Streptococcus pneumoniae ATCC 49619 assessed as inhibition of bacterial growth by CLSI based micro broth double dilution method
[16] = system: Escherichia coli; assay: Antibacterial activity against Escherichia coli 16-7 assessed as inhibition of bacterial growth by CLSI based micro broth double dilution method
[17] = system: Staphylococcus epidermidis; assay: Antibacterial activity against methicillin-sensitive Staphylococcus epidermidis 16-4 assessed as inhibition of bacterial growth by CLSI based micro broth double dilution method
[18] = system: Streptococcus pneumoniae; assay: Antibacterial activity against erythromycin-resistant Streptococcus pneumoniae 12-3 assessed as inhibition of bacterial growth by CLSI based micro broth double dilution method
[19] = system: Staphylococcus aureus; assay: Antibacterial activity against methicillin-sensitive Staphylococcus aureus 15 assessed as inhibition of bacterial growth by CLSI based micro broth double dilution method
[20] = system: Enterococcus faecalis; assay: Antibacterial activity against vancomycin-resistant Enterococcus faecalis ATCC 51575 assessed as inhibition of bacterial growth by CLSI based micro broth double dilution method
[21] = system: Escherichia coli; assay: Antibacterial activity against ESBL-negative Escherichia coli ATCC 25922 assessed as inhibition of bacterial growth by CLSI based micro broth double dilution method
[22] = system: Pseudomonas aeruginosa; assay: Antibacterial activity against Pseudomonas aeruginosa PAO1 assessed as inhibition of bacterial growth by CLSI based micro broth double dilution method

Compound	MIC [1]	MIC [2]	MIC [3]	MIC [4]	MIC [5]	MIC [6]	MIC [7]	MIC [8]	MIC [9]	MIC [10]	MIC [11]	MIC [12]	MIC [13]	MIC [14]	MIC [15]	MIC [16]	MIC [17]	MIC [18]	MIC [19]	MIC [20]	also measured
CC[C@H]1OC(=O)[C@@](C)(F)C(=O)[C@H](C)[C@@H](O[C@@H]2O[C@H](C)C[C@H](N(C)C)[C@H]2O)[C@@](C)(OC)C[C@@H](C)C(=O)[C@H](C)[C@H]2N(CCCN(C(=O)CCc3ccccc3)c3cnc4ccccc4c3)C(=O)O[C@]12C	0.5 µg/mL (≈ 0.528 µM)	16 µg/mL (≈ 16.9 µM)	> 32 µg/mL	1 µg/mL (≈ 1.06 µM)	> 32 µg/mL	0.5 µg/mL (≈ 0.528 µM)	> 32 µg/mL	0.5 µg/mL (≈ 0.528 µM)	1 µg/mL (≈ 1.06 µM)	> 32 µg/mL	> 32 µg/mL	> 32 µg/mL	> 32 µg/mL	> 32 µg/mL	≤ 0.016 µg/mL	> 32 µg/mL	4 µg/mL (≈ 4.22 µM)	0.06 µg/mL (≈ 0.0633 µM)	1 µg/mL (≈ 1.06 µM)	> 32 µg/mL	MIC [21]: > 32 µg/mL; MIC [22]: > 32 µg/mL
CC[C@H]1OC(=O)[C@H](C)[C@@H](O[C@H]2C[C@@](C)(OC)[C@@H](O)[C@H](C)O2)[C@H](C)[C@@H](O[C@@H]2O[C@H](C)C[C@H](N(C)C)[C@H]2O)[C@](C)(OC)C[C@@H](C)C(=O)[C@H](C)[C@@H](O)[C@]1(C)O [CLARITHROMYCIN]	2 µg/mL (≈ 2.67 µM)	64 µg/mL (≈ 85.6 µM)	> 64 µg/mL	0.25 µg/mL (≈ 0.334 µM)	> 64 µg/mL	0.03 µg/mL (≈ 0.0401 µM)	> 64 µg/mL	0.12 µg/mL (≈ 0.16 µM)	0.25 µg/mL (≈ 0.334 µM)	> 64 µg/mL	> 64 µg/mL	> 64 µg/mL	> 64 µg/mL	> 64 µg/mL	0.12 µg/mL (≈ 0.16 µM)	> 64 µg/mL	64 µg/mL (≈ 85.6 µM)	> 32 µg/mL	0.25 µg/mL (≈ 0.334 µM)	> 64 µg/mL	MIC [21]: 32 µg/mL (≈ 42.8 µM); MIC [22]: > 64 µg/mL
CC[C@H]1OC(=O)[C@@](C)(F)C(=O)[C@H](C)[C@@H](O[C@@H]2O[C@H](C)C[C@H](N(C)C)[C@H]2O)[C@@](C)(OC)C[C@@H](C)C(=O)[C@H](C)[C@H]2N(CCCn3ccc(=O)c4ccccc43)C(=O)O[C@]12C	0.06 µg/mL (≈ 0.0735 µM)	> 32 µg/mL	> 32 µg/mL	0.12 µg/mL (≈ 0.147 µM)	> 32 µg/mL	0.03 µg/mL (≈ 0.0368 µM)	> 32 µg/mL	0.06 µg/mL (≈ 0.0735 µM)	0.12 µg/mL (≈ 0.147 µM)	> 32 µg/mL	> 32 µg/mL	> 32 µg/mL	> 32 µg/mL	> 32 µg/mL	≤ 0.016 µg/mL	> 32 µg/mL	0.25 µg/mL (≈ 0.306 µM)	0.25 µg/mL (≈ 0.306 µM)	0.12 µg/mL (≈ 0.147 µM)	> 32 µg/mL	MIC [21]: 16 µg/mL (≈ 19.6 µM); MIC [22]: > 32 µg/mL
CC[C@H]1OC(=O)[C@@](C)(F)C(=O)[C@H](C)[C@@H](O[C@@H]2O[C@H](C)C[C@H](N(C)C)[C@H]2O)[C@@](C)(OC)C[C@@H](C)C(=O)[C@H](C)[C@H]2N(CCCN(C(=O)/C=C/c3ccccc3)c3ccnc4ccccc34)C(=O)O[C@]12C	0.5 µg/mL (≈ 0.529 µM)	8 µg/mL (≈ 8.46 µM)	> 32 µg/mL	0.5 µg/mL (≈ 0.529 µM)	> 32 µg/mL	0.5 µg/mL (≈ 0.529 µM)	> 32 µg/mL	1 µg/mL (≈ 1.06 µM)	1 µg/mL (≈ 1.06 µM)	> 32 µg/mL	> 32 µg/mL	32 µg/mL (≈ 33.9 µM)	> 32 µg/mL	> 32 µg/mL	≤ 0.016 µg/mL	> 32 µg/mL	1 µg/mL (≈ 1.06 µM)	0.5 µg/mL (≈ 0.529 µM)	1 µg/mL (≈ 1.06 µM)	> 32 µg/mL	MIC [21]: > 32 µg/mL; MIC [22]: > 32 µg/mL
CC[C@H]1OC(=O)[C@@](C)(F)C(=O)[C@H](C)[C@@H](O[C@@H]2O[C@H](C)C[C@H](N(C)C)[C@H]2O)[C@@](C)(OC)C[C@@H](C)C(=O)[C@H](C)[C@H]2N(CCCOc3ccnc4ccccc34)C(=O)O[C@]12C	0.5 µg/mL (≈ 0.613 µM)	16 µg/mL (≈ 19.6 µM)	> 32 µg/mL	0.5 µg/mL (≈ 0.613 µM)	> 32 µg/mL	0.25 µg/mL (≈ 0.306 µM)	> 32 µg/mL	0.5 µg/mL (≈ 0.613 µM)	1 µg/mL (≈ 1.23 µM)	> 32 µg/mL	> 32 µg/mL	> 32 µg/mL	> 32 µg/mL	> 32 µg/mL	0.25 µg/mL (≈ 0.306 µM)	> 32 µg/mL	1 µg/mL (≈ 1.23 µM)	32 µg/mL (≈ 39.2 µM)	1 µg/mL (≈ 1.23 µM)	> 32 µg/mL	MIC [21]: > 32 µg/mL; MIC [22]: > 32 µg/mL
